Active and inactive are the calls of the source.

This passage reports AC50 and EC50 results from ChEMBL document CHEMBL1201862, “PubChem BioAssay data set” (2004).

Series [1] has as its target T1, Replicative DNA helicase DnaB (Mycobacterium tuberculosis, UniProt P9WMR3).
T1 sequence (P9WMR3 whole entry): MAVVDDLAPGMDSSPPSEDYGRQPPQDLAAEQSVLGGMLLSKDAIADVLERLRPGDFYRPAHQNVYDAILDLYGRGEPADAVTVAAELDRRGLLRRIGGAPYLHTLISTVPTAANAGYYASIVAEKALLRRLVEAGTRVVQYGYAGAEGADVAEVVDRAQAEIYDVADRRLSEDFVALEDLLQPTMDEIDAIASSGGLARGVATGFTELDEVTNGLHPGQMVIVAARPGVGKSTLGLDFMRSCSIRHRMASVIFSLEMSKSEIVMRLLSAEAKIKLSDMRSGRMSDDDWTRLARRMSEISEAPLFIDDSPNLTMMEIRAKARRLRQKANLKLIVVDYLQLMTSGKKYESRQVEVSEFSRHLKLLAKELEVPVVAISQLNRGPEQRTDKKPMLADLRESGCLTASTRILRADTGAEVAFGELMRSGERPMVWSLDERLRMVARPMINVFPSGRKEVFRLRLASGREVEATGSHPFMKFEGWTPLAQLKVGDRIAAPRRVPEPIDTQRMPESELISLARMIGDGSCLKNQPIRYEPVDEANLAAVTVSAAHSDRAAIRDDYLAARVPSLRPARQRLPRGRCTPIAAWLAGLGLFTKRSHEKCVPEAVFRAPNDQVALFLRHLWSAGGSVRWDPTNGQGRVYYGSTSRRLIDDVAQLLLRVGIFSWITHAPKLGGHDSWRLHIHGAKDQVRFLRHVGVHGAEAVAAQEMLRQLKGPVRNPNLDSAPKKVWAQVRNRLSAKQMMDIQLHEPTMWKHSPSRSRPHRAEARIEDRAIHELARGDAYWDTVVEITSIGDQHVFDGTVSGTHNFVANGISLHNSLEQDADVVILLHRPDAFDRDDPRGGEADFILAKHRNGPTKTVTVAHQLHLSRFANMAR
Description: DnaB intein splicing inhibitors, dose response, biochemical, cell-free fluorescence (AID 449749). It is filed as functional.

Series [2] has as its target T2, Protein RecA (Mycobacterium tuberculosis, UniProt P9WHJ3).
T2 sequence (P9WHJ3 whole entry): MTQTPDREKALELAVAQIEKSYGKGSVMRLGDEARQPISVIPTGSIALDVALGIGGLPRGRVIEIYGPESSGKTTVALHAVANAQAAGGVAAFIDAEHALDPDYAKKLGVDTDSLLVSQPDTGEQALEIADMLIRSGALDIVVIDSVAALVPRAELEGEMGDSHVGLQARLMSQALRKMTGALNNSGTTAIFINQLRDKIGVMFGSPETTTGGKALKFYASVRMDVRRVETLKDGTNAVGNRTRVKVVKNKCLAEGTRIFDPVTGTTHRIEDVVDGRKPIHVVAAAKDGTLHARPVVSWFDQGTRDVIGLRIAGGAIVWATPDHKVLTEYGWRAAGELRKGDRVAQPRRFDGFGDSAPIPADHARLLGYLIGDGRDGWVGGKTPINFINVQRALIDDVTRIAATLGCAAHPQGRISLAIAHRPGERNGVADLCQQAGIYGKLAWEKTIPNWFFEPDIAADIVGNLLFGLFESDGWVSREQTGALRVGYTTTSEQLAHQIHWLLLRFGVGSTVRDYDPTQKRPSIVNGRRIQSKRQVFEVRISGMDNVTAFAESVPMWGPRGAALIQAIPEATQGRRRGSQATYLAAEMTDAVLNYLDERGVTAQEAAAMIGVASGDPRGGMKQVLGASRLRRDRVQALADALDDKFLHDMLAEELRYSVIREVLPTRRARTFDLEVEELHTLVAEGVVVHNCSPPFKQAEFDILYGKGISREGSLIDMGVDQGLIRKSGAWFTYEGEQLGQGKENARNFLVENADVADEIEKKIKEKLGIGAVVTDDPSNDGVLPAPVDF
Briefly: Fluorescence Cell-Free Homogeneous Dose Retest to Identify Inhibitors of RecA-Intein Splicing Activity. [Related pubchem assays (depositor defined):AID2097, AID2223, AID489010, AID492950]. It is filed as functional.

A short description of series [3]: Luminescence Cell-Based Dose Retest to Confirm Inhibitors of Cancer Stem Cells. [Related pubchem assays (depositor defined):AID2717, AID2721]. It is filed as functional, Homo sapiens. Particulars: Homo sapiens.
The test system of series [4] is INS1. Briefly: INS-1E survival protection against cytokine death – cell-based, luminescence, retest, dose response (AID 449756).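 Also: cell death triggered by IL-1 beta plus TNF-alpha plus IFN-gamma mixture; protective hits raise ATP signal compared with cytokine alone wells.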 It is filed as functional. The conditions noted are these: Rattus norvegicus.
A short description of series [5]: Luminescence Cell-Based Dose Response HTS to Identify Activators of Luciferase Translation or Activity in H4 […] Cells. [Related pubchem assays: 1829 (Project Summary), 1814 (Primary HTS)]. It is filed as functional.
Series [6] deals with H4. Briefly: Luminescence Cell-Based Dose Response HTS to Identify Activators of 5'UTR Stem-Loop Driven Prion Protein mRNA Translation in H4 Neuroglioblastoma Cells. [Related pubchem assays: 1829 (Project Summary), 1814 (Primary HTS)]. It is filed as functional. The conditions noted are these: Homo sapiens.
Series [7] is described as follows: NIH-3T3 fibroblast cytotoxicity, dose response, cytotoxicity control, cell-based, fluorescence, Alamar Blue, secondary assay (AID 2327).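 Also: NIH-3T3 mouse fibroblasts cultured with fluconazole at 8 µg/mL.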 It is filed as functional. In general terms: The colour change of resazurin is a common sign of viable cells or microbes.
Series [8] in a line: alpha-synuclein stem-loop luciferase translation blockers – H4 neuroglioma cells, luminescence, confirmation (AID 1988). It is filed as functional, cell-based.
The test system of series [9] is Streptococcus. Briefly: GAS UMAA2166 growth inhibition – luminescence, BacTiterGlo, counter-screen for streptokinase expression inhibitor project, dose response (AID 1915).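 Also: potency for reduction of bacterial viability or growth.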 It is filed as functional, organism-based. In general terms: The purpose of a counterscreen is to sort out artefacts and off-target activity.
Series [10] has as its system Streptococcus sp. 'group A'. Briefly: Streptococcus pyogenes SK(-)GAS viability under kanamycin – luminescence, BacTiterGlo, confirmation, counter-screen for streptokinase expression inhibitor project, dose response (AID 1900). It is filed as functional, organism-based.
Series [11] addresses Cytochrome P450 2C19 (Homo sapiens, UniProt P33261). Description: Cytochrome panel assay with activity outcomes. Panel member name: p450-cyp2c19 Compounds with AC50 equal or less than 10 uM are considered active. It is filed as functional.
In series [12] the target is Cytochrome P450 2C9 (Homo sapiens, UniProt P11712).
Sequence of Cytochrome P450 2C9 (P11712 whole entry): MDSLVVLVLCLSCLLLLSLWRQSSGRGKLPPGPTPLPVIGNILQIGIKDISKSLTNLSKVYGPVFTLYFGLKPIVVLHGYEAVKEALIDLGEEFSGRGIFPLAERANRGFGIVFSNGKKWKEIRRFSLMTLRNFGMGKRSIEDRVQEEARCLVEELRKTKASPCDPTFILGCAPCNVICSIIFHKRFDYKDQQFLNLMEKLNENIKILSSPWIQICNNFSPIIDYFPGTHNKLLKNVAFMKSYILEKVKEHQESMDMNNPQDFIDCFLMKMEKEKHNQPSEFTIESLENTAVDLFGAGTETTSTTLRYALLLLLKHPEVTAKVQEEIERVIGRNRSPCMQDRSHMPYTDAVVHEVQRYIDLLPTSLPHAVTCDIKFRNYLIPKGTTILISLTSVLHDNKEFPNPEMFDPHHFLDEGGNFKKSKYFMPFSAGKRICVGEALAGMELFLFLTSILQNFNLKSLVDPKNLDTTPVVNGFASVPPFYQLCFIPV

Sequence of Cytochrome P450 2C19 (P33261 whole entry): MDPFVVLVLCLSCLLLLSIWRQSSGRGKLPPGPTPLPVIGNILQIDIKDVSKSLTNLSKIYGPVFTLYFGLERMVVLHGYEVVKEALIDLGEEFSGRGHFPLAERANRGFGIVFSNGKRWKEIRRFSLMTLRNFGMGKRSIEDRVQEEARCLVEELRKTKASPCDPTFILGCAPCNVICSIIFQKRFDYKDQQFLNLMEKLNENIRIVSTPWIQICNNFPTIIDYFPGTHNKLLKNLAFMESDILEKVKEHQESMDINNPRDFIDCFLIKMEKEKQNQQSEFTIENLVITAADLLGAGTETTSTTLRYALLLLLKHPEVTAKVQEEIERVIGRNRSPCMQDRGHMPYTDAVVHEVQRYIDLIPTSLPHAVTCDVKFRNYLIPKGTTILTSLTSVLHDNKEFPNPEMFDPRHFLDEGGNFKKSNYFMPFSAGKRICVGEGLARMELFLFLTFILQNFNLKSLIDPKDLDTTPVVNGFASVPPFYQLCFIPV

With `COC(=O)Cc1cc(=O)n(-c2ccccc2)[nH]1`, the AC50 (commonly the concentration at which the activity in the assay is half-maximal) in series [1] was 17.6 µM (active). Also, the EC50 (usually the concentration giving half of the maximal effect) in [2] is 14 µM (active).

On to `O=C(/C(=C\c1ccccc1)c1nc2ccccc2[nH]1)c1ccc(Cl)cc1`, for which the AC50 in series [3] was 3.28 µM (active).

In the case of `COc1cc(OC)cc(-c2nnc(SCC(=O)N(Cc3ccccc3)C(C)(C)C)o2)c1`, in series [3], the AC50 was 0.618 µM (active).

In the case of `COC(=O)CN1C(=O)C2(C(C#N)=C(N)Oc3c2c(C)nn3-c2ccccc2)c2ccccc21` (stereo not given), in [1], the AC50 was 7.38 µM (active). The EC50 in series [2] is 3.38 µM (active).

Regarding `COc1ccc(C(=O)/C(=C/c2cccs2)c2nc3ccccc3o2)cc1`, the AC50 in [1] is > 380 µM (inactive). Besides, in [2], the EC50 was > 380 µM (inactive).

With `COc1ccc(/C(=N/OC(C)=O)c2nccc3cc(OC)c(OC)cc23)cc1OC`, the AC50 in [1] was > 380 µM (inactive). For the same molecule, in [2], the EC50 was 36.3 µM (active).

For the molecule `Cn1c(N)c(C(=O)COC(=O)c2ccccc2C(=O)c2ccc(Cl)c([N+](=O)[O-])c2)c(=O)n(C)c1=O`, the AC50 in [3] is 4.25 µM (active).

As to `CCOCC(=O)NCc1ccc2c(c1)cc(C)n2C`, the AC50 in series [1] is > 380 µM (inactive). The EC50 in [2] was 23.6 µM (active).

For `COc1ccc(-c2cn(Cc3ccc(C(=O)c4ccccc4)cc3)nn2)cc1`, the AC50 in series [4] is 9.37 µM (active). For the same molecule, the 50% effective concentration (EC50) in series [5] was 90.4 µM (active); in series [6], 21.2 µM (active).

Take `NC(=O)CC(NC(=O)Cc1cccc2ccccc12)c1ccc(NC2CCCCCCC2)c([N+](=O)[O-])c1` (stereo not given): in series [3], the AC50 was 14.1 µM (active).

For `C/C(=N\NC(=O)Cc1cc(O)[nH]n1)c1cccc([N+](=O)[O-])c1`, the AC50 in [1] was 2.73 µM (active). Also, the EC50 in series [2] was 1.31 µM (active).

Consider `CCCc1[nH][nH]c(=O)c1C(c1ccccc1)C(C#N)C#N` (stereo not given), for which the AC50 in series [1] was 8.91 µM (active). For the same molecule, the EC50 in series [2] is 4.19 µM (active).

Take `Clc1ccc(-c2c[n+](Cc3ccc(Br)cc3)c3n2CCCCC3)cc1`: the EC50 in [7] was > 150 µM (inconclusive).

With `CN1/C(=C\C(=O)Nc2ccc(Br)cc2)C(C)(C)c2ccccc21`, the AC50 in [3] was 5.09 µM (active).

Turning to `COC(=O)Cc1n[nH]c2c1C1(CCSCC1)C(C#N)=C(N)O2`, the AC50 in series [1] is 10.8 µM (active). The EC50 in series [2] was 1.99 µM (active).

For `COc1ccccc1Oc1cc(C#N)c(C#N)cc1-n1nnc2ccccc21`, the AC50 in series [1] was 20.2 µM (active). In series [2], the EC50 is 3.77 µM (active).

`CC(O)CC(C(=O)NNc1ccccc1)C(=O)NNc1ccccc1` (stereo not given): the AC50 in [3] is 0.489 µM (active).

Turning to `CC(C)COc1ccc2[nH]c3c(c2c1)CCCC3=O`, the EC50 in series [8] was 10.6 µM (active).

Regarding `COc1ccc(N2CCN(C(=O)c3ccc(Oc4ccc(C(F)(F)F)cn4)cc3)CC2)cc1`, the AC50 in series [1] is 121 µM (active). Moreover, the EC50 in series [2] is > 380 µM (inactive).

`O=C(Oc1ccc2ccccc2c1)c1ccco1`: in series [1], the AC50 was 18.3 µM (active). In addition, the EC50 in series [2] is 13.9 µM (active).

Consider `CC(C)=CCCC1(C)C=Cc2c(ccc3c2[nH]c2cc(O)c(C)cc23)O1` (stereo not given), for which the AC50 in series [3] was 2.9 µM (active). Further, the EC50 was 6.72 µM (active) in [9] and 2.31 µM (active) in series [10].

On to `CC(=O)N(c1ccccc1)C(C)c1nc(C#N)c(C#N)nc1C` (stereo not given), for which, in series [1], the AC50 was 24.5 µM (active). Moreover, the EC50 in [2] was 4.35 µM (active).

Regarding `COc1ccc(/C=N/NC(=O)c2cc(C34CC5CC(CC(C5)C3)C4)[nH]n2)cc1O`, the AC50 in series [3] was 1.16 µM (active).

On to `CC(=O)NC1=NN(c2ccccc2)C(=O)C1`, for which the AC50 result in series [11] was “inconclusive”; in series [1] it was 33.5 µM (active). The EC50 in [2] is 5.21 µM (active).

For `Cc1cc(C)c(OCCCCN2CCNCC2)c(C)c1`, the AC50 in series [3] was 3.23 µM (active).

With `COc1ccc(-n2nc3c(N4CCC(C(=O)NCCc5ccccc5C)CC4)nnc(C)c3c2C)cc1`, the AC50 in series [3] was 4.03 µM (active).

For the molecule `Oc1cccc(/C=N/c2cccc3ccccc23)c1O`, the AC50 in series [1] was 3.04 µM (active). Besides, the EC50 in series [2] was 10.1 µM (active).

`COc1cccc(C=O)c1OCCCOc1cccc2cccnc12`: the EC50 was 16.4 µM (active) in series [5] and 28.1 µM (active) in series [6].

In the case of `CC(=O)Oc1ccc2c(=O)oc(-c3ccccc3C)nc2c1`, the AC50 in series [1] is > 380 µM (inactive). For the same molecule, the EC50 in series [2] is 37.8 µM (active).

Regarding `O=C(Nc1cc(C(F)(F)F)ccc1N1CCCCC1)c1ccc(Br)o1`, the AC50 in series [3] is 4.94 µM (active); in series [12], 1.41 µM (inconclusive).

For `COc1ccc(-c2sc3ccccc3c2-c2ccc(O)cc2)cc1`, the AC50 in [3] is 3.35 µM (active).

Turning to `Cc1cc(C)cc(S(=O)(=O)c2cnc3ccccc3n2)c1`, the AC50 in series [1] is 20.2 µM (active). Also, the EC50 in series [2] is 4.26 µM (active).

As for `COc1ccc2cc(/C=N/NC(=O)c3ccc(CN(c4cccc(Cl)c4Cl)S(C)(=O)=O)cc3)c(Cl)nc2c1`, the AC50 in series [3] was < 0.16 µM (active).

On to `Cc1ccc(CNC(=O)c2ccc(N(C)S(=O)(=O)c3ccccc3)cc2)cc1`, for which the AC50 in series [1] is 53.4 µM (active). Moreover, the EC50 in series [2] was > 380 µM (inactive).

With `CCN(CC)S(=O)(=O)c1cccc(C(=O)N/N=C/c2cccc(O)c2O)c1`, the AC50 in series [3] was 8.97 µM (active).

In the case of `CC1=NNC(=O)C1C(c1ccccc1)C1C(=O)NN=C1C` (stereo not given), the AC50 in series [1] is 0.383 µM (active). The EC50 in series [2] is 0.194 µM (active).

For the molecule `CO/C(O)=C1/C(C)=NC(=S)NC1c1ccc(OC(=O)c2ccco2)cc1` (stereo not given), in [1], the AC50 is 33.1 µM (active). In series [2], the concentration for a half-maximal effect (EC50) is 14.4 µM (active).

On to `Cc1c(C(=O)N2CCOCC2)sc2nc(-c3ccccc3)cn12`, for which the results for the EC50 in series [5] and in series [6] were 3.66 µM (active) and 28.8 µM (active), respectively.
